Data on five molecules can be found in US20220226321A1, “INHIBITOR OF MNK FOR THE TREATMENT OF NEUROPATHIC PAIN” (Board of Regents, The University of Texas System, priority 2019, published 2022).

One assay relates to paclitaxel-treated mice. Briefly: mechanical paw withdrawal threshold (von Frey) in paclitaxel-induced CIPN. The note with it: intrathecal 10 μg, paclitaxel-induced pain. The assay is classed as in vivo, mouse.
The next assay deals with cultured DRG neurons. Briefly: Western blot of cultured DRG neurons treated with IFN-α, IFN-β, ISRIB or poly (I:C). It is filed as cell-based, mouse. The procedure:
Primary cell culture of mouse DRG neurons and Western blot. Cultured primary DRG neurons were used to test the effects of IFN-α [(300 units (U)/mL] and IFN-β [(300 units (U)/mL] application. For these experiments, mice were anesthetized with isoflurane and killed by decapitation. Then DRGs, from all spinal levels, were dissected and placed in chilled Hanks balanced-salt solution (HBSS, Invitrogen) until processed. Dorsal root ganglia were digested in 1 mg/mL collagenase A (Roche, Mannheim, Germany) for 25 minutes at 37° C. then subsequently digested in a 1:1 mixture of 1 mg/mL collagenase D and papain (Roche) for 20 minutes at 37° C. After this step, dorsal root ganglia were then triturated in a 1:1 mixture of 1 mg/mL trypsin inhibitor (Roche) and bovine serum albumin (BioPharm Laboratories, Bluffdale, Utah), then filtered through a 70 μm cell strainer (Corning, N.Y.). Cells were pelleted then resuspended in DMEM/F12 with GlutaMAX (Thermo Fisher Scientific, MA) containing 10% fetal bovine serum (FBS; Thermo Fisher Scientific), 5 ng/mL NGF, 1% penicillin and streptomycin, and […] to inhibit mitosis of non-neuronal cells and were distributed evenly in a 6-well plate coated with poly-D-lysine (Becton Dickinson, NJ). DRG neurons were maintained in a 37° C. incubator containing 5% CO2 with a media change every other day. On day 6, DRG neurons were treated with either vehicle, IFN-α or IFN-β for 1, 3, 6 and 24 h. Following treatments, cells were rinsed with chilled 1×PBS buffer, harvested in 200 μL of RIPA lysis buffer (50 mM Tris, pH 7.4, 150 mM NaCl, 1 mM EDTA, pH 8.0, and 1% Triton X-100) containing protease and phosphatase inhibitors (Sigma-Aldrich), and then sonicated for 5 seconds. To clear debris, samples were centrifuged at 14,000 rpm for 15 min at 4° C. Ten to 15 μg of protein was loaded into each well and separated by a 10% SDS-PAGE gel. Proteins were transferred to a 0.45 PVDF membrane (Millipore, MA) at 30 V overnight at 4° C. Subsequently, membranes were blocked with 5% non-fat dry milk in 1× Tris buffer solution containing Tween 20 (TTBS) for at least 2 h. Membranes were washed 3 times for 10 minutes each (3×10) in 1×TTBS, then incubated with primary antibodies overnight at 4° C. The following day, membranes were washed 3×10 each then incubated with the corresponding secondary antibodies at room temperature for 1 h. After incubation, membranes were washed with 1×TTBS 3×10 each. Signals were detected using Immobilon Western Chemiluminescent HRP Substrate (Millipore) and then visualized with Bio-Rad ChemiDoc Touch. Membranes were stripped using Restore Western Blot Stripping buffer (Thermo Fisher Scientific) and reprobed with another antibody. Analysis was performed using Image lab 6.0.1 software for Mac (Bio-Rad, Hercules, Calif.).
In general terms: Immunoblotting shows a protein as a band on a membrane.

Assay [1] has as its system SNI mice. Briefly: mechanical withdrawal threshold (von Frey) after SNI. Conditions: WT and 4EKI, 10 μg i.t., 2 hours after injection on each CPP conditioning day. The assay is classed as in vivo, mouse. On the procedure: (§1) Surgery. Spared nerve injury (SNI) was performed by the ligation and cutting of the tibial and peroneal branches of the left sciatic nerve trifurcation, leaving the sural branch intact as previously described (Decosterd and Woolf, 2000). Sham surgeries were performed the same way but without cutting the nerve. Mice were allowed to recover for 2 weeks following surgery.
Mechanical withdrawal threshold. Tactile sensitivity was measured by probing the left outer surface of the left hindpaw with a series of calibrated von Frey filaments. Mechanical withdrawal thresholds were assessed in all animals before (baseline) and after (2 weeks) surgery to confirm neuropathy. Withdrawal thresholds were calculated using the up-down method (Chaplan et al., 1994).

The test system of assay [2] is SNI mice. Nature of the assay: conditioned place preference (CPP) after SNI. The assay is classed as in vivo, mouse. Conditions: 10 μg i.t. On the procedure: Conditioned Place Preference. A previously published CPP protocol from the Walters laboratory protocol was used (Yang et al., 2014). The CPP box consisted of one black and one white chamber connected by a striped chamber. CPP was conducted in a dark room with a single low lumens light source (Maia 69E120-WH). The middle chamber of the CPP box was brightly illuminated to discourage mice from spending time in the middle chamber. […] On day 1 of testing (preconditioning), each mouse was permitted to explore the middle and black (but not white) chambers for 30 minutes. […] On the last day of CPP, each mouse was placed in the middle chamber with unrestricted access to all chambers and video-recorded for 10 min. Data are presented as the percent change in time spent in the drug-paired chambered compared to the control (vehicle or sham for each genotype or surgery). This was calculated by dividing each animal's time spent in the white box by the control average, multiplying by 100 and then subtracting 100.
as §1

A further assay concerns DRG neurons. Nature of the assay: whole-cell patch clamp of cultured DRG neurons treated with IL-6 and eFT508. The assay is classed as cell-based, mouse. The procedure:
Phosphorylation of the 5′ cap-binding protein eIF4E by MAPK interacting kinases MNK1/2 is important for nociceptor sensitization and the development of chronic pain. IL-6 induced DRG nociceptor excitability is attenuated in mice lacking eIF4E phosphorylation, in MNK1/2^−/− mice and by the nonselective MNK1/2 inhibitor cercosporamide. […] Dorsal root ganglion (DRG) neurons were cultured from male and female ICR mice, 4-7 weeks old. […] Whole-cell patch clamp recordings were done on small diameter neurons (20-30 pF) to measure membrane excitability in response to ramp depolarization. […] These findings are consistent with a model wherein MNK-eIF4E signaling controls the translation of signaling factors that regulate T-type VGCCs in response to IL-6 treatment.

Assay [3] deals with cultured mouse DRG neurons. Nature of the assay: microelectrode array (MEA) recordings of cultured DRG neurons exposed to IL-6. It is filed as cell-based. The note with it: IL-6 100 ng/ml, tomivosertib 25 nM co-treatment. The procedure: Extracellular electrophysiology. Substrate-integrated microelectrode array (MEA) recordings were performed using PDL and laminin pre-treated 12-well MEA plates (Axion Biosystems, USA) and an Axion Maestro recording system. DRG sensory neurons were dissected, dissociated, and seeded as previously described (Moy et al., 2017). […] Cultures were maintained at 37° C., 5% CO2, and ≥90% humidity throughout the recordings. Briefly, 30 min baseline recordings were carried out following a 30 min acclimation period. […] Recordings were then collected continuously for 3 hours. […] Online and offline MEA data analysis was performed using Axion's AxIS, NeuralMetrics Tools, and NeuroExplorer (NeuroExplorer, USA). Physiologically relevant extracellular action potentials were defined as previously described^29.

The test system of assay [4] is mice. Briefly: thermal latency (Hargreaves) after type I IFN or poly (I:C). The assay is classed as in vivo, mouse. The note with it: i.pl. 300 U/25 μL. The procedure:
(§2) Behavior. Mice were housed on 12-hour light/dark cycles with food and water available ad libitum. Mice were randomized to groups from multiple cages to avoid using mice from experimental groups that were cohabitating. Sample size was estimated by performing a power calculation using G*Power (version 3.1.9.2). With 80% power and an expectation of d=2.2 effect size in behavioral experiments, and a set to 0.05, the sample size required was calculated as n=6 per group. The inventors therefore sought to have at least n=6 sample in all behavioral experiments. SD (set at 0.3) for the power calculation was based on previously published mechanical threshold data from the inventors' lab (Moy et al., 2017). Animals were habituated for 1 hour to clear acrylic behavioral chambers before beginning the experiment. For intraplantar injections, drugs were injected in a total volume of 25 μL through a 30-gauge needle. For intraperitoneal injections, drugs were administered in a volume of 100 μL Mechanical paw withdrawal thresholds in mice were measured using the up-down method (Chaplan et al., 1994) with calibrated von Frey filaments (Stoelting Company, WoodDale, Ill.). Thermal latency was measured using a Hargreaves device (IITC Life Science) (Hargreaves et al., 1988) with heated glass settings of 29° C., 40% active laser power, and 20 sec cutoff were used. The experimenter was blinded to the genotype of the mice and the drug condition in all experiments.

The test system of a further assay is eIF4E. Briefly: immunocytochemistry of p-eIF4E in cultured DRG neurons. It is filed as cell-based, mouse. Conditions: 300 U/mL, one-hour stimulation. On the procedure: Immunofluorescence. For primary neuronal cultures, DRG neurons were harvested and cultured for 6 days according to the protocol described above with the exception that cells were distributed evenly on poly-D-lysine-coated 8-well chamber slide with removable wells (cat #12-565-8, Fisher Scientific). After treatments, cells were fixed in ice-cold 10% formalin in 1×PBS for 1 h and processed for immunocytochemistry (ICC). Cells were washed with 1×PBS and permeabilized in 1×PBS containing 10% heat-inactivated normal goat serum (NGS; Atlanta Biologicals, Atlanta, Ga.) and 0.02% Triton X-100 (Sigma) in 1×PBS for 30 min and then blocked in 10% NGS in 1×PBS for 2 h. […] Images were taken using an Olympus FluoView 1200 confocal microscope and analyzed with FIJI for Mac OS X. Images shown are representative of samples taken from 3 separate wells and presented as projections of Z stacks. Using ImageJ, the corrected total cell fluorescence (CTCF) was calculated to determine the intensity of the signal between experimental groups. To do so, the integrated density and the area, as well as the background noise was measured and the CTCF calculated as equal to: the integrated density −(area of selected cell×mean fluorescence of background readings). CTCF values from all experimental treatment groups were normalized to vehicle groups and expressed as normalized CTCF.

Assay [5] has as its system mice. Briefly: mechanical paw withdrawal threshold (von Frey) after type I IFN or poly (I:C). Conditions: i.pl. 300 U/25 μL. The assay is classed as in vivo, mouse. On the procedure: as §2

“Also recorded” adds a separate entry of the source.

On to `COc1ccc(-c2ccc3c(N4CCOC[C@@H]4C)nc(N4CCOC[C@@H]4C)nc3n2)cc1CO` [AZD8055], for which, in the assay with paclitaxel-treated mice, the “mechanical allodynia / hypersensitivity after first injection” value is “robust reduction in mechanical hypersensitivity; also recorded: relieves mechanical allodynia” and the “mechanical allodynia / hypersensitivity after second (subsequent) injection” value is on record as “the magnitude of this effect was decreased; also recorded: no significant effects were observed”.

`O=C(COc1ccc(Cl)cc1)NC1CCC(NC(=O)COc2ccc(Cl)cc2)CC1` (stereo not shown) [ISRIB]: in the assay with cultured DRG neurons (ISRIB 200 nM), the “PKR phosphorylation after 24 h IFN-α (300 U/mL) in the presence of ISRIB” value is listed as “no changes” and the “components of the signaling pathways activated after IFN-α or IFN-β application” value was “did not modulate”.

Turning to `Clc1cccc(Cl)c1N=C1NCCN1` [clonidine], in the assay with SNI mice [1], the mechanical hypersensitivity result is on record as “significantly attenuated mechanical hypersensitivity”. In addition, the “time spent in the drug-paired chamber vs 4EKI sham” value in the assay on SNI mice [2] (4EKI SNI mice) is reported as “no significant difference”. The “more time in the clonidine-paired chamber vs WT sham” value with SNI mice [2] (WT SNI female mice) is listed as around 30%.

Turning to “IL-6: interleukin-6, a cytokine that evokes pain”, the “amplitudes of T-type voltage-gated calcium channels (VGCCs)” value with DRG neurons (IL-6, eFT508 co-treatment) was “increased”. The “latency to the first action potential in the ramp protocol” value in the assay on DRG neurons (IL-6, eFT508 pretreatment) is given as “lower”. The “action potential firing in response to ramp depolarization” value with DRG neurons (one hr IL-6, eFT508 pretreatment followed by IL-6) is reported as “increased action potential firing”. Moreover, the spontaneous firing result in [3] is “enhanced spontaneous firing”.

B1: IFN-β: Recombinant mouse IFN-β protein (protein, UniProt P01575 22-182, looked up)
Interferon beta: INYKQLQLQERTNIRKCQELLEQLNGKINLTYRADFKIPMEMTEKMQKSYTAFAIQEMLQNVFLVFRNNFSSTGWNETIVVRLLDELHQQTVFLKTVLEEKQEERLTWEMSSTALHLKSYYWRVQRYLKLMKYNSYAWMVVRAEIFRNFLIIRRLTRNFQN
Take B1: in the assay with cultured DRG neurons (300 U/mL), the AKT phosphorylation result is recorded as “stimulated AKT phosphorylation”; the “ERK and eIF4E phosphorylation” value is “increase”; the “downstream JAK/STAT signaling pathways” value is on record as “rapidly activated”. Moreover, the “BiP expression or signaling via PKR and downstream p-eIF2α” value in the assay with cultured DRG neurons (300 U/mL, 1-6 h) is “did not modify”. In addition, in the assay on cultured DRG neurons (300 U/mL, long exposure (24 h)), the PKR phosphorylation result is listed as “did not modify”. Moreover, in the assay with cultured DRG neurons (300 U/mL, time course of 6 h), the “mTOR or ribosomal protein S6 phosphorylation” value is listed as “did not observe any changes”. In the assay with mice [4] (female mice), the thermal hypersensitivity result is “no significant changes”. The “paw withdrawal latency to thermal stimulation” value in the assay on mice [4] (male mice) is “no significant changes”. The “phosphorylation of eIF4E (ICC)” value in the assay on eIF4E is listed as “stimulated phosphorylation of eIF4E”. In the assay with mice [5] (female mice), the “hind paw mechanical hypersensitivity” value is “increased hind paw mechanical hypersensitivity”. Besides, in the assay on mice [5] (male mice), the “mechanical hypersensitivity to von Frey filament stimulation” value is listed as “rapid mechanical hypersensitivity”.
